Consider 8 compounds from PMC12362764, “Novel Cyano‐Artemisinin Dimer ZQJ29 Targets PARP1 to Induce Ferroptosis in Pancreatic Cancer Treatment” (Advanced Science, 2025).

In one series the test system is PANC-1 and KP4 cells. The series can be described thus: Cell death manner assay (co-treatment with death pathway inhibitors, CCK-8). It is filed as cell-based. The following applies: 10 µM Z-VAD-FMK, 5 mM 3-MA, 10 µM Nec-1, 10 µM Fer-1 with ZQJ29, 24 h. On the procedure: To investigate the mechanism of ZQJ29 in pancreatic cancer proliferation inhibition, the manners of cell death were analyzed. The cell apoptosis inhibitor Z‐VAD‐FMK, cell autophagy inhibitor 3‐methyladenine, cell necrosis inhibitor necrostatin‐1, cell ferroptosis inhibitor Ferrostatin‐1, and cell ferroptosis agonist Erastin were purchased […] (MCE, USA) and stored at −20 °C. PANC‐1 and KP4 cells were seeded with a density of 2000 cells/100 µL well^−1 into 96 well plates. After 24 h, 10 µM Z‐VAD‐FMK, 5 mM 3‐methyladenine, 10 µM necrostatin‐1, 10 µM Ferrostatin‐1, and 10 µM Erastin were added and co‐incubated with ZQJ29 (1 µM), respectively, for 24 h. Then, 10 µL CCK‐8 was added and incubated at 37 °C for an additional 1 h, the absorbance was measured at 450 nm. The percentage of viability was calculated.

The test system of a further series is PANC-1. Kind of series: CCK-8 cytotoxicity assay, PANC-1. The class given is cell-based. To be noted: PANC-1, 72 h, average of 3 parallel tests. As to the method: (§1) Cell viability was evaluated using the Cell Counting Kit‐8 (Beyotime, Shanghai, China) assay. Cells were seeded in 96‐well plates at a density of 2×10^3 cells to allow for attachment. After treatment with ZQJ29 (0.001, 0.01, 0.1, 10, and 25 µM) for 24, 48, and 72 h, 10 µL of CCK‐8 solution was added to each well and incubated for 1 h. The optical density values were then measured at 450 nm using a multifunctional enzyme‐linked immunosorbent assay reader (Tecan, Spark, Switzerland).

In the next series the test system is KP4. The series can be described thus: CCK-8 cytotoxicity assay, KP4. The following applies: KP4, 72 h, average of 3 parallel tests. The class given is cell-based. On the procedure: as §1
A further series concerns A549. Kind of series: CCK-8 cytotoxicity assay, A549. The class given is cell-based. The following applies: A549, 72 h. On the procedure:
as §1

Another series concerns H1975. Kind of series: CCK-8 cytotoxicity assay, H1975. The class given is cell-based. On the procedure: as §1
The next series concerns MCF. The series can be described thus: CCK-8 cytotoxicity assay, MCF. To be noted: 72 h. It is filed as cell-based. As to the method: as §1
For another series, the system named is HeLa. Kind of series: CCK-8 cytotoxicity assay, HeLa. It is filed as cell-based. The following applies: 72 h. On the procedure: as §1
The test system of a further series is HCT116. Kind of series: CCK-8 cytotoxicity assay, HCT116. It is filed as cell-based. To be noted: HCT116, 72 h. As to the method: as §1
In the next series the test system is JHH7. The series can be described thus: CCK-8 cytotoxicity assay, JHH7. The class given is cell-based. The following applies: JHH7, 72 h. As to the method: as §1
The subject of the next series is HEK-293T. Kind of series: CCK-8 cytotoxicity assay, HEK-293T (normal cell line). The following applies: 72 h. The class given is cell-based. As to the method: as §1
The test system of another series is LX2. Kind of series: CCK-8 cytotoxicity assay, LX2 (normal cell line). The class given is cell-based. As to the method: as §1
A further series concerns THLE-2. Kind of series: CCK-8 cytotoxicity assay, THLE-2 (normal cell line). It is filed as cell-based. The following applies: 72 h. On the procedure:
as §1

For the next series, the system named is HPDE6-C7. The series can be described thus: CCK-8 cytotoxicity assay, HPDE6-C7 (normal cell line). It is filed as cell-based. On the procedure: as §1
Details of series [1]: method as in PMID 38859952. To be noted: DHA; cited from earlier work.
In the next series the test system is PANC-1 tumors. The series can be described thus: PANC-1 subcutaneous xenograft antitumor activity. The following applies: vs control. It is filed as in vivo, BALB/c nude mice. On the procedure: (§2) Five‐week‐old male BALB/c nude mice were purchased from Shanghai Jihui Laboratory Animal Breeding Co., Ltd. (Shanghai, China). After a one‐week acclimatization period, PANC‐1 cells were subcutaneously injected at a dose of 5 × 10^6 cells per mouse. Four weeks post‐injection, once tumor volumes reached 50–100 mm^3, the tumor‐bearing animals were randomly divided into four groups, each consisting of six animals. ZQJ29 was prepared in a 0.5% CMC‐Na solution, while OXA was dissolved in saline. The control group was treated with oral gavage of 0.5% CMC‐Na, while the positive control group was administered intraperitoneal injections of OXA at a dosage of 3 mg kg^−1 every three days. The test groups were treated with oral gavage of ZQJ29 at dosages of 25 and 50 mg kg day^−1. Mouse weights were monitored every other day. Tumor measurements were taken every other day using calipers, and the tumor volume was calculated using the following formula: ½ × length × width^2. Drug administered continued for three weeks. After blood collection at the end of the administration, the mice were humanely euthanized, and their vital organs were promptly harvested, preserved, and embedded in paraffin for H&E staining.

Series [2] is described as follows: Toxicity in tumor-bearing mice (body weight, ALT/AST, H&E). It is filed as in vivo, BALB/c nude mice. As to the method:
as §2
Following the experiments, organs from mice, including hearts, livers, spleens, lungs, and kidneys were swiftly collected and fixed in 4% paraformaldehyde overnight. The tissues were then embedded in paraffin. Afterward, 4‐µm‐thick sections were produced and stained using H&E. Images of these sections were captured with a Leica DM4000b microscope (Germany).
Blood samples were collected and placed in a biochemical incubator for 30 min, followed by centrifugation at 6000 rpm for 10 min. The supernatant was used to measure the following indicators: ALT and AST (both from Jiancheng, Nanjing, China).

Residues, ends and D or L forms follow the SMILES beside them. *: point of attachment. Cbz = O=C(OCc1ccccc1)*; CH2F = FC*

With `Cn1cnc(N)c2ncnc1-2` [3‐MA, 3‐methyladenine], the “reversal of ZQJ29-induced cell death by co-treatment” value (from here on “reversal of ZQJ29-induced cell death”) in the series with PANC-1 and KP4 cells is reported as “did not reverse”.

Consider `N.N.[Cl][Pt][Cl]` [DDP], for which the IC50 was greater than 10 µM in the series on PANC-1; greater than 10 µM with KP4; greater than 10 µM in the series on A549; greater than 10 µM in the series with H1975 (H1975, 72 h); 0.036 ± 0.028 µM in the series with MCF; 0.282 ± 0.11 µM with HeLa. Further, the IC50 in the series on HCT116 is 0.071 ± 0.042 µM; in the series on JHH7, greater than 10 µM; in the series with HEK-293T it was greater than 10 µM; in the series with LX2 (72 h), greater than 10 µM; in the series on THLE-2, 1.46 ± 0.984 µM; with HPDE6-C7 (72 h) it was greater than 10 µM.

On to `C[C@H]1[C@@H](O)O[C@@H]2O[C@@]3(C)CC[C@H]4[C@H](C)CC[C@@H]1[C@@]24OO3` [DHA, dihydroartemisinin], for which the IC50 is greater than 10 µM with PANC-1 (Homo sapiens); greater than 10 µM with KP4 (Homo sapiens, KP-4); greater than 10 µM in the series on A549 (Homo sapiens); greater than 10 µM in the series on H1975 (Homo sapiens, NCI-H1975, 72 h); greater than 10 µM with MCF; greater than 10 µM in the series on HeLa (Homo sapiens). Further, the IC50 in the series on HCT116 (Homo sapiens, HCT-116) was greater than 10 µM; with JHH7, greater than 10 µM; in the series with HEK-293T (Homo sapiens) it was greater than 10 µM; in the series with LX2 (Homo sapiens, LX-2, 72 h), greater than 10 µM; with THLE-2 (Homo sapiens) it was 8.66 ± 0.714 µM; in the series with HPDE6-C7 (HPDE6c7, 72 h) it was greater than 10 µM. In addition, the t1/2 in [1] is 30 min.

As to `CCOC(=O)c1ccc(NC2CCCCC2)c(N)c1` [Fer‐1, Ferrostatin‐1], the “reversal of ZQJ29-induced cell death” value in the series with PANC-1 and KP4 cells was “reversed”.

On to `CN1C(=O)C(Cc2c[nH]c3ccccc23)NC1=S` (stereo not drawn) [Nec‐1, necrostatin‐1], for which the “reversal of ZQJ29-induced cell death” value in the series with PANC-1 and KP4 cells is “did not reverse”.

As for `O=C1[O][Pt]2([NH][C@@H]3CCCC[C@H]3[NH]2)[O]C1=O` [OXA, oxaliplatin], the IC50 in the series with PANC-1 is greater than 10 µM; with KP4, greater than 10 µM; in the series with A549 it was 2.47 ± 0.41 µM; with H1975 (H1975, 72 h), 3.49 ± 0.552 µM; in the series on MCF, 0.196 ± 0.087 µM; in the series on HeLa it was 0.51 ± 0.121 µM. The IC50 in the series on HCT116 is 0.103 ± 0.026 µM; in the series on JHH7, 7.15 ± 2.6 µM; in the series on HEK-293T, greater than 10 µM; with LX2 (72 h) it was 2.46 ± 0.56 µM; in the series on THLE-2, 0.777 ± 0.188 µM; in the series with HPDE6-C7 (72 h), 2.7 ± 0.567 µM. Further, the tumor growth result in the series with PANC-1 tumors (ZQJ29 25 and 50 mg/kg/day oral gavage, OXA 3 mg/kg i.p. every three days, three weeks) was “effectively inhibited”. Further, the “expression of Ki67 and PCNA in tumor tissue (IHC)” value in the series on PANC-1 tumors (after treatment) is recorded as “significantly reduced”. Besides, the “post-experiment levels of ALT and AST” value in [2] (ZQJ29 50 mg/kg, OXA 3 mg/kg i.p.) was “significantly elevated”. Further, the “body weight during the whole treatment period” value in series [2] (tumor-bearing nude mice, three weeks) is “decreased significantly”.

For `CC1CCC2C(C)C(OCCNCCOC3OC4OC5(C)CCC6C(C)CCC(C3C)C46OO5)OC3OC4(C)CCC1C32OO4` (stereo not drawn) [SM1044], the IC50 in the series on PANC-1 (Homo sapiens) is 5.95 ± 0.501 µM; in the series with KP4 (Homo sapiens, KP-4) it was 3 ± 0.799 µM; in the series on A549 (Homo sapiens), 3.45 ± 1.76 µM; in the series with H1975 (Homo sapiens, NCI-H1975, 72 h), 6.88 ± 0.014 µM; with MCF, 1.33 ± 0.303 µM; in the series with HeLa (Homo sapiens) it was 2.29 ± 0.429 µM. For the same compound, the IC50 in the series on HCT116 (Homo sapiens, HCT-116) was 4.98 ± 2.36 µM; in the series with JHH7, 2.13 ± 0.573 µM; in the series on HEK-293T (Homo sapiens), greater than 10 µM; in the series with LX2 (Homo sapiens, LX-2, 72 h), greater than 10 µM; with THLE-2 (Homo sapiens), greater than 10 µM; with HPDE6-C7 (HPDE6c7, 72 h), greater than 10 µM.

Consider `COC(=O)C[C@H](NC(=O)[C@H](C)NC(=O)[C@@H](NC(=O)OCc1ccccc1)C(C)C)C(=O)CF` [Z‐VAD‐FMK] (Cbz-Val-Ala-Asp(OMe)-CH2F), for which the “reversal of ZQJ29-induced cell death” value with PANC-1 and KP4 cells is “did not reverse”.
